Test results published in US7517874B2 (priority 2007, dated 2009).
Where two headings read alike, the source gives them in different places.

What was measured:
[1] = target: T1, rat CB2 receptor (rCB2) (Rattus norvegicus, UniProt Q9QZN9); assay: cell-based; format: cell-based; conditions: for +/− RCB2: agonist or inverse agonist at rCB2
T1 sequence (Q9QZN9 1-360): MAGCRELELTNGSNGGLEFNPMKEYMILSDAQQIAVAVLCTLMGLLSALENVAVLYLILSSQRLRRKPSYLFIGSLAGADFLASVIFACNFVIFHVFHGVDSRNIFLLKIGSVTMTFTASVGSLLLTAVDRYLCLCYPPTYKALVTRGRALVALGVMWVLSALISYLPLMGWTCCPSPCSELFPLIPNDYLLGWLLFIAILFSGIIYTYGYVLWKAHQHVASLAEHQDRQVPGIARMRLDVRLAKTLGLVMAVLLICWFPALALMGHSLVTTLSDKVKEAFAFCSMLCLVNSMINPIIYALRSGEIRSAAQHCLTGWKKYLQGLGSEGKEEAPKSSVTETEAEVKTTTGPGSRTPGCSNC
Procedure, shortened: (§1)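 Agonism or inverse agonism was assessed as change in intracellular cAMP in CHO-K1 cells expressing human CB1 or rat CB2 (genomic DNA, pcDNA3.1).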

[2] = target: human CB1 receptor (hCB1) (Homo sapiens, UniProt P21554); assay: cell-based; format: cell-based; conditions: for +/− HCB1: agonist or inverse agonist at hCB1
Procedure, shortened: as §1

Sequence of human CB1 receptor (hCB1) (P21554 whole entry): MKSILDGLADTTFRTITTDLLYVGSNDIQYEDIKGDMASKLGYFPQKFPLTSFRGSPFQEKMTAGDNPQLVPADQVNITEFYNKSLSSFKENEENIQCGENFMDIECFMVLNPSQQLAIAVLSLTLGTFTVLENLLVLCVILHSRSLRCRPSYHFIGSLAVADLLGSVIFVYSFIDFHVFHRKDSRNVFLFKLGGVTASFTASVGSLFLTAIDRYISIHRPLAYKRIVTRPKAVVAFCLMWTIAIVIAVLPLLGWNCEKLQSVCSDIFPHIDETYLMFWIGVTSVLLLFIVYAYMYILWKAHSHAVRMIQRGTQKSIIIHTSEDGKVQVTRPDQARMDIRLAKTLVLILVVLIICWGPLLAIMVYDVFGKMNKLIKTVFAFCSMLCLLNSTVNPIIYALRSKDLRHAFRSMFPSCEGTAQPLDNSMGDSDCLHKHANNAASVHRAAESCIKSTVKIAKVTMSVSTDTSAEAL

| Compound | +/− RCB2 [1] | EC50 [2] | EC50 [1] | +/− HCB1 [2] | EC50 ([2]; groups >100 nM-10 μM and >10 μM, cAMP, CHO-K1 hCB1, read-out: EC50 HCB1) |
| --- | --- | --- | --- | --- | --- |
| CN1CCCn2c(-c3cc(F)ccc3F)nc(C(=O)N[C@H](C(=O)N(C)C)C(C)(C)C)c2C1 [Compound 562, (S)-3-(2,5-difluorophenyl)-N-(1-(dimethylamino)-3,3-dimethyl-1-oxobutan-2-yl)-8-methyl-6,7,8,9-tetrahydro-5H-imidazo[1,5-a][1,4]diazepine-1-carboxamide] | − | > 10000 nM |  |  |  |
| CNC(=O)[C@@H](NC(=O)c1nc(-c2ccc(Cl)cc2F)n2c1CNCCC2)C(C)(C)C [Compound 315, (S)-3-(4-chloro-2-fluorophenyl)-N-(3,3-dimethyl-1-(methylamino)-1-oxobutan-2-yl)-6,7,8,9-tetrahydro-5H-imidazo[1,5-a][1,4]diazepine-1-carboxamide] |  | > 10000 nM | > 10 µM |  |  |
| CN1CCCn2c(-c3ccc(F)c(Cl)c3)nc(C(=O)N[C@H](C(=O)N(C)C)C(C)(C)C)c2C1 [Compound 558, (S)-3-(3-chloro-4-fluorophenyl)-N-(1-(dimethylamino)-3,3-dimethyl-1-oxobutan-2-yl)-8-methyl-6,7,8,9-tetrahydro-5H-imidazo[1,5-a][1,4]diazepine-1-carboxamide] | + |  |  | + |  |
| CNC(=O)[C@@H](NC(=O)c1nc(/C=C/CN2CCCC2)n2c1CN(C)CC2)C(C)(C)C [Compound 288, (S,E)-N-(3,3-dimethyl-1-(methylamino)-1-oxobutan-2-yl)-7-methyl-3-(3-(pyrrolidin-1-yl)prop-1-enyl)-5,6,7,8-tetrahydroimidazo[1,5-a]pyrazine-1-carboxamide] | − | > 10000 nM |  |  |  |
| CNC(=O)[C@@H](NC(=O)c1nc(-c2cccc3cccnc23)n2c1CN(C)CC2)C(C)(C)C [Compound 242, (S)-N-(3,3-dimethyl-1-(methylamino)-1-oxobutan-2-yl)-7-methyl-3-(quinolin-8-yl)-5,6,7,8-tetrahydroimidazo[1,5-a]pyrazine-1-carboxamide] | − | > 10000 nM |  |  |  |
| CC(C)CCNC(=O)c1nc(-c2ccc(Cl)cc2)n2c1CN(C(=O)C1CC1)CC2 [Compound 131, 3-(4-chlorophenyl)-7-(cyclopropanecarbonyl)-N-isopentyl-5,6,7,8-tetrahydroimidazo[1,5-a]pyrazine-1-carboxamide] | − | > 10000 nM |  |  |  |
| CNC(=O)[C@@H](NC(=O)c1nc(-c2nccs2)n2c1CN(C)CC2)C(C)(C)C [Compound 297, (S)-N-(3,3-dimethyl-1-(methylamino)-1-oxobutan-2-yl)-7-methyl-3-(thiazol-2-yl)-5,6,7,8-tetrahydroimidazo[1,5-a]pyrazine-1-carboxamide] | + | > 10000 nM |  |  |  |
| CNC(=O)[C@@H](NC(=O)c1nc(-c2ccccc2)n2c1CN(c1ncccn1)CC2)C(C)(C)C [Compound 298, N-(3,3-dimethyl-1-(methylamino)-1-oxobutan-2-yl)-3-phenyl-7-(pyrimidin-2-yl)-5,6,7,8-tetrahydroimidazo[1,5-a]pyrazine-1-carboxamide] | + |  |  | + |  |
| CNC(=O)[C@@H](NC(=O)c1nc(-c2ccccc2)n2c1CN(S(=O)(=O)c1cccc(F)c1)CC2)C(C)(C)C [Compound 99, (S)-N-(3,3-dimethyl-1-(methylamino)-1-oxobutan-2-yl)-7-(3-fluorophenylsulfonyl)-3-phenyl-5,6,7,8-tetrahydroimidazo[1,5-a]pyrazine-1-carboxamide] | − | > 10000 nM |  |  |  |
| CC(C)CN1CCn2c(-c3ccccc3)nc(C(=O)N[C@H](CO)C(C)(C)C)c2C1 [Compound 60, (S)-N-(1-hydroxy-3,3-dimethylbutan-2-yl)-7-isobutyl-3-phenyl-5,6,7,8-tetrahydroimidazo[1,5-a]pyrazine-1-carboxamide] | − | > 10000 nM |  |  |  |
| CNC(=O)[C@@H](NC(=O)c1nc(-c2ccccc2C(F)(F)F)n2c1CN(C)CC2)C(C)(C)C [Compound 255, (S)-N-(3,3-dimethyl-1-(methylamino)-1-oxobutan-2-yl)-7-methyl-3-(2-(trifluoromethyl)phenyl)-5,6,7,8-tetrahydroimidazo[1,5-a]pyrazine-1-carboxamide] | + | > 10000 nM |  |  |  |
| CC(C)(C)C(=O)N1CCn2c(-c3ccccc3)nc(C(=O)NC3CCCCC3)c2C1 [Compound 137, N-cyclohexyl-3-phenyl-7-pivaloyl-5,6,7,8-tetrahydroimidazo[1,5-a]pyrazine-1-carboxamide] | − |  |  |  | > 10000 nM |
| CNC(=O)[C@@H](NC(=O)c1nc(-c2ccccc2)n2c1CN(CC(C)(C)C)CC2)C(C)(C)C [Compound 55, (S)-N-(3,3-dimethyl-1-(methylamino)-1-oxobutan-2-yl)-7-neopentyl-3-phenyl-5,6,7,8-tetrahydroimidazo[1,5-a]pyrazine-1-carboxamide] | − | > 10000 nM |  |  |  |
| CNC(=O)[C@@H](NC(=O)c1nc(-c2ccccc2)n2c1CN(S(=O)(=O)c1ccccc1)CC2)C(C)(C)C [Compound 96, (S)-N-(3,3-dimethyl-1-(methylamino)-1-oxobutan-2-yl)-3-phenyl-7-(phenylsulfonyl)-5,6,7,8-tetrahydroimidazo[1,5-a]pyrazine-1-carboxamide] | − | > 10000 nM |  |  |  |
| CNC(=O)[C@@H](NC(=O)c1nc(-c2cccc(C(F)(F)F)c2)n2c1CN(C)CCC2)C(C)(C)C [Compound 438, (S)-N-(3,3-dimethyl-1-(methylamino)-1-oxobutan-2-yl)-8-methyl-3-(3-(trifluoromethyl)phenyl)-6,7,8,9-tetrahydro-5H-imidazo[1,5-a][1,4]diazepine-1-carboxamide] | − | > 10000 nM |  |  |  |
| CNC(=O)[C@@H](NC(=O)c1nc(-c2ccccc2)n2c1CN(C(=O)C1CC1)CC2)C(C)(C)C [Compound 126, (S)-7-(cyclopropanecarbonyl)-N-(3,3-dimethyl-1-(methylamino)-1-oxobutan-2-yl)-3-phenyl-5,6,7,8-tetrahydroimidazo[1,5-a]pyrazine-1-carboxamide] | − | > 10000 nM |  |  |  |
| C[C@@H](NC(=O)c1nc(-c2ccccc2)n2c1CN(C(=O)C1CC1)CC2)C1CCCCC1 [Compound 132, (R)-N-(1-cyclohexylethyl)-7-(cyclopropanecarbonyl)-3-phenyl-5,6,7,8-tetrahydroimidazo[1,5-a]pyrazine-1-carboxamide] | − | > 10000 nM |  |  |  |
| CNC(=O)[C@@H](NC(=O)c1nc(-c2ccc(Cl)cc2F)n2c1CN(C)CC2)C(C)(C)C [Compound 241, (S)-3-(4-chloro-2-fluorophenyl)-N-(3,3-dimethyl-1-(methylamino)-1-oxobutan-2-yl)-7-methyl-5,6,7,8-tetrahydroimidazo[1,5-a]pyrazine-1-carboxamide] | − | > 10000 nM |  |  |  |
